Among the test systems are M14 melanoma; NCI-H522 lung; NCI/ADR-RES ovarian; MDA-MB-231 breast; LOX IMVI melanoma; HOP-62 NSCLC; CAKI-1 renal; SF-268 CNS; MDA-MB-435; NCI-H460 lung.
Assay in all cases: NCI-60 cell line screen, 48 h

Structures are written as SMILES. Values joined by “and” are separate entries in the source; they are usually repeats but may differ in a detail not shown here. Equal entries are not always repeated.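 Test compounds were applied to cells in 96-well plates for 48 hours at 5 doses. The concentration for 50% growth inhibition is given as GI50. TGI marks complete inhibition of growth.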

Turning to `OCC1OC(n2cnc3c2NC=NC[C@H]3O)CC1O` (stereo partly specified), the GI50 was > 588 µM with M14 melanoma; > 588 µM in the assay on NCI-H522 lung; > 588 µM with HOP-62 NSCLC; 351 µM and > 588 µM in the assay on CAKI-1 renal; > 588 µM in the assay on SF-268 CNS; > 588 µM in the assay with NCI-H460 lung. The TGI in the assay with M14 melanoma was 500 µM and > 588 µM; with NCI-H522 lung, 500 µM and > 588 µM; with NCI/ADR-RES ovarian, 500 µM; in the assay on MDA-MB-231 breast it was > 500 µM; in the assay with LOX IMVI melanoma, 500 µM; in the assay with HOP-62 NSCLC it was 471 µM and > 588 µM. In addition, the TGI was 495 µM and > 588 µM in the assay with CAKI-1 renal; 500 µM and > 588 µM in the assay with SF-268 CNS; > 500 µM in the assay with MDA-MB-435; 480 µM and > 588 µM in the assay with NCI-H460 lung.

As for `Cc1cc(C)c2nc3nc(C)cc(C)c3c(N)c2c1`, the GI50 in the assay on M14 melanoma is 4.53 µM; with NCI-H522 lung, 5.46 µM; in the assay with NCI/ADR-RES ovarian, 6.88 µM; in the assay on MDA-MB-231 breast, 5.17 µM; in the assay with LOX IMVI melanoma, 3.51 µM; with HOP-62 NSCLC, 5.26 µM. Besides, the GI50 in the assay with CAKI-1 renal was 1.83 µM; in the assay with SF-268 CNS it was 5.38 µM; with MDA-MB-435, 3.53 µM; with NCI-H460 lung, 3.15 µM. Moreover, the TGI turned out to be 16.1 µM in the assay on M14 melanoma; 22.6 µM in the assay with NCI-H522 lung; 36.9 µM in the assay with NCI/ADR-RES ovarian; 28.6 µM in the assay with MDA-MB-231 breast; 14.9 µM in the assay with LOX IMVI melanoma; 25.7 µM in the assay on HOP-62 NSCLC. The TGI worked out at 6.12 µM in the assay on CAKI-1 renal, 21.6 µM in the assay with SF-268 CNS, 16.6 µM in the assay with MDA-MB-435 and 11 µM in the assay on NCI-H460 lung.

Take `CCCCCCCCCCCCCCCCCC(=O)OCC(COC1OC(CS(=O)(=O)O)C(O)C(O)C1O)OC(=O)CCCCCCCCCCCCCCCCC` (stereo unspecified): the TGI in the assay on M14 melanoma, in the assay on NCI-H522 lung, in the assay on NCI/ADR-RES ovarian, in the assay on MDA-MB-231 breast, in the assay with LOX IMVI melanoma and in the assay on HOP-62 NSCLC was > 100 µM each time. Besides, the TGI with CAKI-1 renal, with SF-268 CNS, in the assay with MDA-MB-435 and with NCI-H460 lung was > 100 µM in each case.

As to `O=S(=O)(CCNCc1ccc(-c2ccc3ncnc(Nc4ccc(OCc5cccc(F)c5)c(Cl)c4)c3c2)o1)c1ccccc1`, the GI50 in the assay on M14 melanoma was > 25 µM; in the assay with NCI-H522 lung it was > 19.5 µM; in the assay on NCI/ADR-RES ovarian it was > 25 µM; in the assay on MDA-MB-231 breast it was > 25 µM; in the assay with LOX IMVI melanoma, > 25 µM; with HOP-62 NSCLC, > 25 µM. For the same compound, the GI50 in the assay with CAKI-1 renal is 6.05 µM; in the assay with SF-268 CNS, > 25 µM; in the assay with MDA-MB-435, > 25 µM; in the assay on NCI-H460 lung it was > 25 µM. The TGI with M14 melanoma, in the assay with NCI-H522 lung, in the assay on NCI/ADR-RES ovarian, in the assay on MDA-MB-231 breast, in the assay on LOX IMVI melanoma and with HOP-62 NSCLC was > 25 µM in each case. The TGI in the assay with CAKI-1 renal, with SF-268 CNS, with MDA-MB-435 and with NCI-H460 lung was > 25 µM in each case.

As for `CCN(CC)CCCCNc1ncc2cc(-c3cc(OC)cc(OC)c3)c(NC(=O)NC(C)(C)C)nc2n1`, the GI50 in the assay on M14 melanoma is 3.1 µM; in the assay on NCI-H522 lung it was 6.45 µM; in the assay on NCI/ADR-RES ovarian it was 8.01 µM; in the assay with MDA-MB-231 breast, 5.89 µM; in the assay with LOX IMVI melanoma, 5.34 µM; in the assay on HOP-62 NSCLC, 12.1 µM. The GI50 in the assay on CAKI-1 renal was 3.99 µM; in the assay with SF-268 CNS, 5.47 µM; in the assay with MDA-MB-435 it was 4.87 µM; with NCI-H460 lung, 6.85 µM. Also, the TGI with M14 melanoma is 9.65 µM; in the assay with NCI-H522 lung it was 18.4 µM; with NCI/ADR-RES ovarian, 27.3 µM; with MDA-MB-231 breast it was 17 µM; in the assay on LOX IMVI melanoma it was 18.8 µM; with HOP-62 NSCLC, 27.2 µM. Also, the TGI in the assay with CAKI-1 renal was found to be 17 µM; in the assay on SF-268 CNS, 21.1 µM; with MDA-MB-435 it was 18.2 µM; with NCI-H460 lung it was 20.8 µM.

In the case of `S=C(c1ccc2c(c1)OCO2)N1CCN(c2cccc(Cl)c2)CC1`, the GI50 was 0.472 µM in the assay on M14 melanoma; 0.382 µM in the assay with NCI-H522 lung; 0.635 µM with NCI/ADR-RES ovarian; 5.73 µM with MDA-MB-231 breast; 1.14 µM in the assay with LOX IMVI melanoma; 3.27 µM in the assay on HOP-62 NSCLC. Further, the GI50 in the assay with SF-268 CNS was 4.65 µM; in the assay on MDA-MB-435 it was 0.182 µM; with NCI-H460 lung, 0.387 µM. The TGI is > 100 µM with M14 melanoma; > 100 µM in the assay on NCI/ADR-RES ovarian; > 100 µM with MDA-MB-231 breast; > 100 µM in the assay on LOX IMVI melanoma; > 59.2 µM with HOP-62 NSCLC; > 100 µM with CAKI-1 renal. Besides, the TGI is > 100 µM with SF-268 CNS, 0.607 µM in the assay with MDA-MB-435 and > 74.7 µM in the assay on NCI-H460 lung.

Consider `O=C(O)c1ccccc1-c1ccccc1C(=O)Nc1ccc2c(c1)[nH]c(=O)c1ccccc12`, for which the TGI in the assay with M14 melanoma, in the assay on NCI-H522 lung, with NCI/ADR-RES ovarian, with MDA-MB-231 breast, in the assay with LOX IMVI melanoma and in the assay with HOP-62 NSCLC was > 100 µM throughout. In addition, the TGI with CAKI-1 renal, with SF-268 CNS, in the assay with MDA-MB-435 and in the assay with NCI-H460 lung was > 100 µM each time.

Consider `Cc1ccc(-c2nc(N)c(C#N)c3c2CCOc2c-3ccc3ccccc23)cc1`, for which the GI50 with M14 melanoma is 0.377 µM; in the assay with NCI-H522 lung, 0.507 µM; in the assay with NCI/ADR-RES ovarian, 0.331 µM; in the assay on MDA-MB-231 breast, 0.07 µM; with HOP-62 NSCLC it was 0.313 µM; with CAKI-1 renal, 0.171 µM. Moreover, the figures for the GI50 in the assay with SF-268 CNS, with MDA-MB-435 and in the assay on NCI-H460 lung were 0.356 µM, 0.0309 µM and 0.332 µM, respectively. Further, the TGI was > 22.9 µM in the assay on M14 melanoma; > 100 µM in the assay on NCI-H522 lung; 31.5 µM in the assay with NCI/ADR-RES ovarian; 0.626 µM in the assay on MDA-MB-231 breast; 7.93 µM with HOP-62 NSCLC; 16.9 µM in the assay on CAKI-1 renal. Also, the TGI in the assay on SF-268 CNS is 31.6 µM; in the assay with MDA-MB-435 it was 0.459 µM; in the assay with NCI-H460 lung it was > 46.4 µM.

For `N#CCCSC(=S)C1CCCC1=N` (stereo unspecified), the TGI with M14 melanoma, in the assay on NCI-H522 lung, in the assay with NCI/ADR-RES ovarian, in the assay on MDA-MB-231 breast, with HOP-62 NSCLC and in the assay with CAKI-1 renal was > 100 µM each time. The TGI with SF-268 CNS, with MDA-MB-435 and in the assay on NCI-H460 lung was > 100 µM each time.

For the origin of these results see PubChem BioAssay (NCI).
